Counter-ions that a name gives are not always drawn.
Molecular target: RIPK1 (recombinant GST-RIPK1 kinase domain, residues 1-327) (Homo sapiens (Human), UniProt Q13546)
Assay: RIPK1-ADP-Glo Enzymatic Assay
Type: biochemical
Details: ADP-Glo; 25 nM GST-RIPK1, 300 μM ATP; assay lower limit ~25 nM; read-out: RIPK1 V0 Ec50
In short: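 Enzyme from baculovirus-infected Sf21 cells, 25 nM final, was pre-incubated 30 min at ambient temperature with compound (ten-point, 1:3 dilution from 100000 nM, 1% DMSO), then reacted 150 min with 300 μM ATP and 3 μM dephosphorylated MBP. ADP was read by luminescence; EC50 from four-parameter fit.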

Chain of RIPK1 (recombinant GST-RIPK1 kinase domain, residues 1-327) (Q13546 1-327): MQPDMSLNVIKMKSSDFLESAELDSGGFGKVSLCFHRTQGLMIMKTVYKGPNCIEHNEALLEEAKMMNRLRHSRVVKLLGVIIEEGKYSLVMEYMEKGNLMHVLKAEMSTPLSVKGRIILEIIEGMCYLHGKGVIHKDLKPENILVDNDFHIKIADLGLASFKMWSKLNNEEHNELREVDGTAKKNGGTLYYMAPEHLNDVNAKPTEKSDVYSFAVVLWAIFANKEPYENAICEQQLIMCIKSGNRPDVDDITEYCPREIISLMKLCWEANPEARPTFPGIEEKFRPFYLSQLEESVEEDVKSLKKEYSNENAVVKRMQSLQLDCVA

Question: Which EC50 does the source give for `Cc1ccc(F)c(C(=O)N2CCC3(CC2)O[C@@H]2CC[C@@H](c4ccccc4F)N2C3=O)c1` [Example 1.17, (5′S,7a′R)-1-(2-fluoro-5-methylbenzoyl)-5′-(2-fluorophenyl)tetrahydro-3′H-spiro[piperidine-4,2′-pyrrolo[2,1-b]oxazol]-3′-one] here?
Answer: Its EC50 is < 25 nM.

Question: How did the EC50 turn out when `CC1CN(c2cc(C#N)ncn2)CCC12O[C@@H]1CC[C@@H](c3ccccc3)N1C2=O` (stereo partly drawn) [Example 4.237, 6-[(4R,5′S,7a′R)-3-methyl-3′-oxo-5′-phenyltetrahydro-1H,3′H-spiro[piperidine-4,2′-pyrrolo[2,1-b] [1,3]oxazol]-1-yl]pyrimidine-4-carbonitrile] was run?
Answer: The EC50 was < 25 nM.

Question: With `COc1cccc(C(=O)N2CCC3(CC2)O[C@@H]2CC[C@@H](c4cccc(F)c4)N2C3=O)c1` [Example 6.117, (5′S,7a′R)-5′-(3-fluorophenyl)-1-(3-methoxybenzene-1-carbonyl)tetrahydro-3′H-spiro[piperidine-4,2′-pyrrolo[2,1-b] [1,3]oxazol]-3′-one] as the compound, how does the EC50 read?
Answer: Its EC50 is < 25 nM.

Question: Which EC50 does the source give for `Cc1nccnc1C(=O)N1CCC2(CC1)O[C@@H]1CC[C@@H](c3cc(F)cc(F)c3)N1C2=O` [Example 6.2, (5′S,7a′R)-5′-(3,5-difluorophenyl)-1-(3-methylpyrazine-2-carbonyl)tetrahydro-3′H-spiro[piperidine-4,2′-pyrrolo[2,1-b] [1,3]oxazol]-3′-one] here?
Answer: The EC50 was 493 nM.

Question: How did the EC50 turn out when `CCOc1cccc(C(=O)N2CCC3(CC2)O[C@@H]2CC[C@@H](c4ccccc4)N2C3=O)c1` [Example 6.139, (5′S,7a′R)-1-(3-ethoxybenzene-1-carbonyl)-5′-phenyl-tetrahydro-3′H-spiro [piperidine-4,2′-pyrrolo[2,1-b][1,3]-oxazol]-3′-one] was run?
Answer: The EC50 was < 25 nM.

Question: With `CSc1nc(N2CCC3(CC2)O[C@@H]2CC[C@@H](c4cc(F)cc(F)c4)N2C3=O)n2nccc2n1` [Example 4.86, (5′S,7a′R)-5′-(3,5-difluorophenyl)-1-(2-(methylthio)pyrazolo [1,5-a][1,3,5]triazin-4-yl)tetrahydro-3′H-spiro[piperidine-4,2′-pyrrolo[2,1-b]oxazol]-3′-one, TFA salt] as the compound, how does the EC50 read?
Answer: The EC50 was 269 nM.

Question: Which EC50 does the source give for `Cc1cc(F)c(C(=O)N2CCC3(CC2)O[C@@H]2CC[C@@H](c4ccccc4)N2C3=O)cc1F` [Example 5.12, (5′S,7a′R)-1-(2,5-difluoro-4-methylbenzene-1-car-bonyl)-5′-phenyltetra-hydro-3′H-spiro[piperi-dine-4,2′-pyrrolo[2,1-b] [1,3]oxazol]-3′-one] here?
Answer: Its EC50 is < 25 nM.

Question: `COc1cc(C(=O)N2CCC3(CC2)O[C@@H]2CC[C@@H](c4cccc(F)c4)N2C3=O)ccc1F` [Example 6.120, (5′S,7a′R)-1-(4-fluoro-3-methoxybenzene-1-carbonyl)-5′-(3-fluoro-phenyl)tetrahydro-3′H-spiro[piperidine-4,2′-pyrrolo[2,1-b][1,3]oxazol]-3′-one] was tested. Which EC50 did it give?
Answer: Its EC50 is < 25 nM.

Question: `O=C1N2[C@@H](CC[C@H]2c2cc(F)cc(F)c2)OC12CCN(c1nnc3cccnn13)CC2` [Example 13.9, (5′S,7a′R)-1-([1,2,4]triazolo[4,3-b]pyridazin-3-yl)-5′-(3,5-difluorophenyl)tetrahydro-3′H-spiro[piperidine-4,2′-pyrrolo[2,1-b]oxazol]-3′-one, TFA salt] was tested. Which EC50 did it give?
Answer: The EC50 was 339 nM.

Question: Which EC50 does the source give for `Cc1nnc(C(=O)N2CCC3(CC2)O[C@@H]2CC[C@@H](c4cc(F)cc(F)c4)N2C3=O)o1` [Example 5.76, (5′S,7a′R)-5′-(3,5-difluoro-phenyl)-1-(5-methyl-1,3,4-oxadiazole-2-carbonyl)-tetrahydro-3′H-spiro[piperi-dine-4,2′-pyrrolo[2,1-b] [1,3]oxazol]-3′-one] here?
Answer: Its EC50 is 924 nM.

Question: With `O=C(c1cccc(F)c1F)N1CCC2(CC1)O[C@@H]1CC[C@@H](c3ccccc3)N1C2=O` [Example 5.9, (5′S,7a′R)-1-(2,3-difluorobenzene-1-car-bonyl)-5′-phenyltetra-hydro-3′H-spiro[piperi-dine-4,2′-pyrrolo[2,1-b] [1,3]oxazol]-3′-one] as the compound, how does the EC50 read?
Answer: Its EC50 is < 25 nM.

Reference: patent publication US12180226B2, “Spirotricycle RIPK1 inhibitors and methods of uses thereof” (Merck Sharp & Dohme LLC, priority 2021, dated 2024)
